From patent publication US6166008A, “Treatment of schizophrenia with ampakines and neuroleptics” (Cortex Pharmaceuticals, Inc., priority 1998, dated 2000)
“Also recorded” adds a separate entry of the source. Structures can show the parent of a compound that is named as a salt.

Columns and labels:
[1] = system: behavior in animals; settings: Freed et al.; cited from earlier work
[2] = system: psychotic symptoms; settings: cited from earlier work; for effect on symptoms in patients: Lahti et al.; for effect in volunteers: Krystal et al.
[3] = system: AMPA receptors; experiment: Field EPSP amplitude in rat hippocampal slices; format: cell-based; settings: field CA1, read-out: EC50 values to increase the amplitude of the field EPSP
Experimental: The physiological effects of Ampakines may be tested in vitro with slices of rat hippocampus according to the following procedure. Excitatory responses (field EPSPs) are measured in hippocampal slices, which are maintained in a recording chamber continuously perfused with artificial cerebrospinal fluid (ACSF). During a 15-30 minute interval, the perfusion medium is switched to one containing various concentrations of the test compounds. Responses collected immediately before and at the end of drug perfusion were superimposed in order to calculate both the percent increase in EPSP amplitude and percent increase in the width of the response at one-half the peak height (half-width). […]
Current pulses (0.1 msec) through the stimulating electrode activate a population of the Schaffer-commissural (SC) fibers which arise from neurons in the field CA3 and terminate in synapses on the dendrites of CA1 neurons. […] This current results in a voltage in the extracellular space (the field excitatory post-synaptic potential or field "EPSP") which is recorded by a high impedance recording electrode positioned in the middle of the stratum radiatum of CA1. […]

[4] = system: Serotoninergic receptor; experiment: Radioligand binding, [^3 H]-dLSD
Excerpt: (§1) Table 2 presents the results of radioligand binding studies that show a lack of interaction between Ampakines and dopaminergic or serotonergic receptors.
(§2) Radioligand Binding Analysis of Potential Interactions between
(§3) Select Ampakines and Select Neurotransmitter Receptors

[5] = system: AMPA-type glutamate receptors; experiment: Specificity for AMPA-type glutamate receptors
Excerpt: as §1

[6] = system: Adrenergic receptor; experiment: Radioligand binding, [^3 H]-Prazosin
Excerpt: as §1, §2, §3

[7] = system: Muscarinic receptor; experiment: Radioligand binding, [^3 H]-QNB
Excerpt: as §1, §2, §3

[8] = system: Dopaminergic receptor; experiment: Radioligand binding, [^3 H]-Spiperone
Excerpt: as §1, §2, §3

[9] = system: methamphetamine-induced locomotor activity; experiment: Methamphetamine-induced locomotor activity / crossing (photobeam system); settings: for Percent Reduction in Methamphetamine Induced Activity: Crossing: Table 1; for reduction of METH LMA: text of Example 3, locomotor activity, haloperidol 0.06 mg/kg, combination p<0.005 vs METH+HAL
Excerpt: (§4) In the present experiments, male Sprague-Dawley rats (250-300 g; Charles River Laboratories) were given ad libitum food and water and maintained on a 12:12 hr light:dark cycle with lights on at 6:00 AM. […] Locomotor and rearing activities were continuously monitored by computer for all ten test cages. Test cages (with photobeam arrays) were placed in a partially darkened room with room ventilation as background noise. On the test day, naive rats were initially placed in the test cages and baseline behavioral activity in the novel environment was monitored during a 30-minute acclimation period. The rats were then injected (i.p.) with vehicle or drug(s) dissolved in vehicle and immediately returned to the test cage and monitored undisturbed for 90 minutes.
(§5) Behavioral experiments were repeated at least twice for each condition. Photobeam breaks were summed by the computer into ten-minute periods for analysis. Group means and standard errors are reported in the figures; means and standard deviations were used for statistical analysis by unpaired, two-tailed t test assuming unequal variance.

[10] = system: methamphetamine-induced rearing activity; experiment: Methamphetamine-induced stereotypic rearing activity (photobeam system); settings: for Percent Reduction in Methamphetamine Induced Activity: Rearing: Table 1; for total cumulative rearing activity during the 90 minute period after drug administration: FIG. 2, METH 2 mg/kg in all, combination p<0.0005 vs METH+clozapine, saline 56±9; for total cumulative rearing activity during the 90 minute period after drug administration / total rearing activity during the 90 minute test period: i.p., mean±standard error; for total rearing activity during the 90 minute test period: FIG. 4, METH in all, combination p<0.0005 vs METH+HAL, saline 53±11; for reduction of methamphetamine-induced rearing activity: FIG. 3 legend; for reduction of METH-induced rearing: risperidone 0.1 mg/kg, combination p<0.01 vs METH+RISP
Excerpt: as §4, §5

[11] = system: D2 dopamine receptor; settings: typical antipsychotics; cited from earlier work
[12] = system: dopamine receptors; settings: atypical antipsychotics; cited from earlier work
[13] = system: serotonin receptors; settings: atypical antipsychotics; cited from earlier work
[14] = peripheral administration in humans; Guenzi and Zanetti; cited from earlier work
[15] = system: fast synaptic potentials in hippocampus; settings: metabolite of aniracetam; cited from earlier work
[16] = fluphenazine 0.2 mg/kg experiment, CX516 10 mg/kg
[17] = clozapine 1.0 mg/kg, CX516 10 mg/kg
[18] = clozapine experiment, METH 2 mg/kg i.p., clozapine 1.0 mg/kg, CX516 10 mg/kg
[19] = haloperidol 0.06 mg/kg experiment, CX516 30 mg/kg
[20] = haloperidol experiment, HAL 0.06 mg/kg, CX516 30 mg/kg
[21] = risperidone 0.1 mg/kg experiment, CX516 10 mg/kg
[22] = text of Example 2, CX516 10 mg/kg
[23] = clozapine 1 mg/kg experiment, CX516 10 mg/kg

## c1ccc(C2(N3CCCCC3)CCCCC2)cc1 [phencyclidine]
[1]
  effect on behavior in animals: produce aberrant behavior in animals
[2]
  effect on symptoms in patients: exacerbate symptoms in patients
  effect in volunteers: produce a range of psychotic symptoms in volunteers

## O=C(c1ccc2nonc2c1)N1CCCCC1 [CX691]
[3]
  EC50: 3 µM
[4]; 1E-4 Molar
  % Inhibition of ligand binding: 27.0%
[4]; 1E-7 Molar
  % Inhibition of ligand binding: 1.6%
[5]
  specificity for AMPA-type glutamate receptors: quite specific for AMPA-type glutamate receptors
[6]; 1E-4 Molar
  % Inhibition of ligand binding: 7.0%
[6]; 1E-7 Molar
  % Inhibition of ligand binding: -7.5%
[7]; 1E-4 Molar
  % Inhibition of ligand binding: -3.7%
[7]; 1E-7 Molar
  % Inhibition of ligand binding: -8.0%
[8]; 1E-4 Molar
  % Inhibition of ligand binding: 10.7%
[8]; 1E-7 Molar
  % Inhibition of ligand binding: 6.1%

## OCCN1CCN(CCCN2c3ccccc3Sc3ccc(C(F)(F)F)cc32)CC1 [Fluphenazine, reference compound]
[9]; [16]
  Percent Reduction in Methamphetamine Induced Activity: Crossing: 54%
[10]; [16]
  Percent Reduction in Methamphetamine Induced Activity: Rearing: 57%
[11]
  D2 dopamine receptor antagonism: potently antagonize the D2 dopamine receptor

## CNC1(c2ccccc2Cl)CCCCC1=O (centres unmarked) [ketamine]
[1]
  effect on behavior in animals: produce aberrant behavior in animals
[2]
  effect on symptoms in patients: exacerbate symptoms in patients
  effect in volunteers: produce a range of psychotic symptoms in volunteers

## CN[C@@H](C)Cc1ccccc1 [METH, S-(+)-methamphetamine HCl, reference compound]
[10]; [17]
  total cumulative rearing activity during the 90 minute period after drug administration: 724±136
[10]; HAL 0.06 mg/kg, CX516 30 mg/kg
  total rearing activity during the 90 minute test period: 1105±161
[10]; [18]
  effect on methamphetamine-induced rearing: large induction of rearing activity

## Cc1cc2c(s1)Nc1ccccc1N=C2N1CCN(C)CC1 [olanzapine]
[12]
  dopamine receptor antagonism: relatively potent antagonists at dopamine receptors
[13]
  serotonin receptor antagonism: potent antagonists at serotonin receptors

## O=C(CCCN1CCC(O)(c2ccc(Cl)cc2)CC1)c1ccc(F)cc1 [Haloperidol, reference compound]
[9]; [19]
  Percent Reduction in Methamphetamine Induced Activity: Crossing: 9%
[9]; CX516 30 mg/kg
  reduction of METH LMA: 9%
[10]; CX516 30 mg/kg, HAL 0.06 mg/kg
  reduction of methamphetamine-induced rearing activity: 16%
[10]; HAL 0.06 mg/kg, CX516 30 mg/kg
  total rearing activity during the 90 minute test period: 934±119
[10]; [19]
  Percent Reduction in Methamphetamine Induced Activity: Rearing: 16%
[10]; [20]
  effect on methamphetamine-induced rearing: modest, non-significant antagonism
[10]; haloperidol experiment, HAL 0.06 mg/kg, CX516 30 mg/kg, listed as HAL
  effect on methamphetamine-induced rearing: Neither CX516 (30 mg/kg) nor HAL (0.06 mg/kg) significantly reduced methamphetamine-induced rearing activity
[11]
  D2 dopamine receptor antagonism: potently antagonize the D2 dopamine receptor

## Cc1nc2n(c(=O)c1CCN1CCC(c3noc4cc(F)ccc34)CC1)CCCC2 [Risperidone, reference compound]
[12]
  dopamine receptor antagonism: relatively potent antagonists at dopamine receptors
[13]
  serotonin receptor antagonism: potent antagonists at serotonin receptors
[9]; [21]
  Percent Reduction in Methamphetamine Induced Activity: Crossing: 43%
[10]; [21]
  Percent Reduction in Methamphetamine Induced Activity: Rearing: 51%
[10]; [22]
  reduction of METH-induced rearing: 51%

## O=C(c1ccc2nccnc2c1)N1CCCCC1 [CX516, 1-(Quinoxalin-6-ylcarbonyl)piperidine]
[3]
  EC50: 180 µM
[4]; 1E-5 Molar
  % Inhibition of ligand binding: 9.1%
[4]; 1E-7 Molar
  % Inhibition of ligand binding: 9.9%
[4]; 1E-9 Molar
  % Inhibition of ligand binding: 5.5%
[5]
  specificity for AMPA-type glutamate receptors: quite specific for AMPA-type glutamate receptors
[6]; 1E-5 Molar
  % Inhibition of ligand binding: -0.2%
[6]; 1E-7 Molar
  % Inhibition of ligand binding: -3.5%
[6]; 1E-9 Molar
  % Inhibition of ligand binding: 0.0%
[9]; [23]
  Percent Reduction in Methamphetamine Induced Activity: Crossing: -32%
[9]; [16]
  Percent Reduction in Methamphetamine Induced Activity: Crossing: 47%
[9]; [19]
  Percent Reduction in Methamphetamine Induced Activity: Crossing: 10%
[9]; [21]
  Percent Reduction in Methamphetamine Induced Activity: Crossing: 0%
[9]; CX516 30 mg/kg
  reduction of METH LMA: 10%
[7]; 1E-5 Molar
  % Inhibition of ligand binding: 5.3%
[7]; 1E-7 Molar
  % Inhibition of ligand binding: 0.4%
[7]; 1E-9 Molar
  % Inhibition of ligand binding: 5.5%
[8]; 1E-5 Molar
  % Inhibition of ligand binding: -2.8%
[8]; 1E-7 Molar
  % Inhibition of ligand binding: 0.6%
[8]; 1E-9 Molar
  % Inhibition of ligand binding: -5.1%
[10]; [17]
  total cumulative rearing activity during the 90 minute period after drug administration: 495±78
[10]; CX516 30 mg/kg, HAL 0.06 mg/kg
  reduction of methamphetamine-induced rearing activity: 23%
[10]; HAL 0.06 mg/kg, CX516 30 mg/kg
  total rearing activity during the 90 minute test period: 863±169
[10]; [23]
  Percent Reduction in Methamphetamine Induced Activity: Rearing: 34%
[10]; [16]
  Percent Reduction in Methamphetamine Induced Activity: Rearing: 37%
[10]; [19]
  Percent Reduction in Methamphetamine Induced Activity: Rearing: 23%
[10]; [21]
  Percent Reduction in Methamphetamine Induced Activity: Rearing: 28%
[10]; [18]
  effect on methamphetamine-induced rearing: synergistically enhanced the antagonistic activity of clozapine; also recorded: synergistically enhances clozapine antagonism of methamphetamine-induced rearing activity; also recorded: small, but statistically insignificant antagonism of methamphetamine-induced rearing
[10]; [20]
  effect on methamphetamine-induced rearing: modest, non-significant antagonism; also recorded: synergistically enhances haloperidol antagonism of methamphetamine-induced stereotypic rearing activity; also recorded: Neither CX516 (30 mg/kg) nor HAL (0.06 mg/kg) significantly reduced methamphetamine-induced rearing activity
[10]; [22]
  reduction of METH-induced rearing: 28%
[10]; text of Example 2, clozapine 1.0 mg/kg alone, CX516 10 mg/kg alone
  antagonism of METH-induced rearing activity: 34%
[10]; text of Example 3, haloperidol 0.06 mg/kg, CX516 30 mg/kg, combination p<0.0005 vs haloperidol alone
  reduction of METH-induced stereotypic rearing activity: 22%

## COc1ccc(C(=O)N2CCCC2=O)cc1 [aniracetam, N-anisoyl-2-pyrrolidinone]
[14]
  fraction of drug converted to anisoyl-GABA: about 80%

## COc1ccc(C(=O)NCCCC(=O)O)cc1 [anisoyl-GABA]
[15]
  aniracetam-like effects: only weak aniracetam-like effects

## CN(C)CCCN1c2ccccc2Sc2ccc(Cl)cc21 [chlorpromazine]
[11]
  D2 dopamine receptor antagonism: potently antagonize the D2 dopamine receptor
